The assay deals with RS11846 B cell chemotaxis to 7a,25-OHC, calcein fluorescence. Briefly: EBI2 antagonists in B cell chemotaxis, dose response, 7a,25-OHC, calcein fluorescence (AID 743410).

We go through one compound from PubChem BioAssay AID743410 (Sanford-Burnham Center for Chemical Genomics, 2014).

In general, IC50 refers to the point on the concentration scale where inhibition reaches its midpoint. Regarding `O=C(/C=C/c1ccc(Br)cc1)N1CCN(Cc2ccc(Cl)cc2)CC1`, the concentration for half-maximal inhibition (IC50) is 6.24 nM.
